Test results as given in patent publication US20240226048A1, “METHODS OF TREATMENT USING BEMPEDOIC ACID” (Esperion Therapeutics, Inc., priority 2023, published 2024).

Experiment: CLEAR OUTCOMES trial: LDL-cholesterol, hsCRP and other lipid/biomarker end points
Type: in vivo, human
Excerpt: The CLEAR OUTCOMES trial was a randomized, placebo-controlled, double-blind trial that enrolled patients at 1250 sites in 32 countries. An independent Data Monitoring Committee reviewed safety and efficacy data during the trial.
Patients 18 to 85 years of age were eligible for enrollment if they met either of two criteria for increased cardiovascular risk, a prior cardiovascular event (secondary prevention) or clinical features that placed them at high risk for a cardiovascular event (primary prevention). (Nicholls S, Lincoff A M, Bays H E, et al. Rationale and design of the CLEAR-outcomes trial: Evaluating the effect of bempedoic acid on cardiovascular events in patients with statin intolerance. Am Heart J. 2021 May; 235: 104-112) All patients provided written informed consent. Patients had to report statin intolerance due to an adverse effect that started or increased during statin therapy and resolved or improved after statin therapy was discontinued. Patients could be enrolled if they tolerated a very low average daily statin dose (e.g., an average daily dose of rosuvastatin <5 mg, atorvastatin <10 mg, simvastatin <10 mg, lovastatin <20 mg, pravastatin <40 mg, fluvastatin <40 mg, or pitavastatin <2 mg). Other lipid-lowering therapies were permitted, including ezetimibe, niacin, bile acid resins, fibrates, and/or proprotein convertase subtilisin kexin type 9 (PCSK9) inhibitors. Full inclusion and exclusion criteria are provided in Nicholls et al. (Am Heart J. 2021).
Eligible patients entered a 4-week run-in period during which patients were treated with single-blind placebo. If patients were intolerant to placebo treatment or if adherence was <80% by tablet count, they were not eligible for randomization. Patients who successfully completed the run-in period were randomly assigned in a 1:1 ratio to receive bempedoic acid at an oral dose of 180 mg or matching placebo, administered daily. Beginning 6 months after enrollment, the central laboratory notified the investigator if the patient's LDL-cholesterol level was ≥25% higher than baseline. These patients were counseled on healthy dietary guidelines and reminded to take all lipid-regulating medications. If repeat testing confirmed that LDL-cholesterol value met the threshold criteria, the provider could adjust the lipid-lowering treatment regimen per standard of care and local guidelines.
This was an event-driven trial designed to provide at least 90% power to detect a 15% relative risk reduction for the primary composite end point at an overall two-sided significance level of 0.05. The trial required a minimum of 1620 primary composite events with >24 months of follow-up for all patients and at least 810 first key secondary end points. The average treatment duration was estimated to be 42 months and a lost-to-follow-up rate of 1% per year. Assuming a 3.59% annual event rate in the placebo group, enrollment of 12,600 patients was required, subsequently amended to 14,000. There were no interim efficacy analyses. A hierarchical approach was prespecified to evaluate sequentially each of the six key secondary efficacy end points with statistical significance at each step required to test the next hypothesis, thereby preserving the study-wise Type I error rate at 5%. All analyses were based on the intent-to-treat principle. The primary efficacy end point was analyzed using Cox proportional hazards model with treatment as a factor to generate the hazard ratio (HR) and 95% confidence interval (CI). The p-value was obtained from a log-rank test.

[1] = Inadequately Controlled Diabetes at Baseline, median
[2] = Inadequately Controlled Diabetes at Baseline, observed mean
[3] = median, 180 mg oral daily, N = 6992
[4] = observed mean, 180 mg oral daily, N = 6992

For `CC(C)(CCCCCC(O)CCCCCC(C)(C)C(=O)O)C(=O)O` [Bempedoic Acid, Bempedoic acid], the “Median change from baseline to month 6 in hsCRP” value (180 mg oral daily, N = 6992) was −22.2%, the “Change from baseline to Month 6 in fasting glucose” value (All patients, median) was -1.0 mg/dL and the “Change from baseline to Month 12 in fasting glucose” value (All patients, median) was 0.0 mg/dL. The “Change from baseline to Month 6 in HbA1c (%)” value (All patients, observed mean) was −0.003%, the “Change from baseline to Month 12 in HbA1c (%)” value (All patients, observed mean) was 0.04% and the “Change from baseline to Month 6 in fasting glucose” value [1] was -4.0 mg/dL. The “Change from baseline to Month 12 in fasting glucose” value [1] was -2.75 mg/dL, the “Change from baseline to Month 6 in HbA1c (%)” value [2] was −0.20% and the “Change from baseline to Month 12 in HbA1c (%)” value [2] was −0.06%. The “Change from baseline to month 12 in HbA1C in patients with inadequately controlled type 2 diabetes mellitus” value (adjusted for baseline HbA1c, pattern-mixed model, 180 mg oral daily) was −0.04%, the “Mean change from baseline to month 6 in mean LDL-C” value (adjusted for baseline LDL-C, pattern-mixed model, 180 mg oral daily, N = 6992) was −21.1% and the “reduction of hsCRP” value (after 6 months treatment, compared with placebo, median baseline 2.3 mg/L) was 21.6%. For the same molecule, the “Change from baseline to month 12 in HbA1C in patients with inadequately controlled type 2 diabetes mellitus, Difference (95% CI)” value (difference vs placebo) was −0.03%, the “Mean change from baseline to month 6 in mean LDL-C, Difference (95% CI)” value (difference vs placebo) was −20.3% and the “Median change from baseline to month 6 in hsCRP, Difference (95% CI)” value (difference vs placebo) was −21.6%. For the same molecule, the “Percent change from baseline to Month 6 in triglycerides” value [3] was −3.4%, the “Percent change from baseline to Month 12 in triglycerides” value [3] was −4.8% and the “Percent change from baseline to Month 6 in HDL-C” value [4] was −5.8% ±. The “Percent change from baseline to Month 6 in non-HDL-C” value [4] was −17.2% ±, the “Percent change from baseline to Month 6 in total cholesterol” value [4] was −16.9% ± and the “Percent change from baseline to Month 12 in HDL-C” value [4] was −5.7% ±. The “Percent change from baseline to Month 12 in non-HDL-C” value [4] was −17.1% ±, the “Percent change from baseline to Month 12 in total cholesterol” value [4] was −14.8% ± and the “Percent change from baseline to Month 24 in non-HDL-C” value [4] was −16.2% ±.
